Reference: the NIST ThermoML archive (doi:10.1021/acs.jced.6b00396)

Experiment: xn = mol fraction of the nth substance listed
Details: Gas, isochoric method

F/C=C(\F)C(F)(F)F [(Z)-1,2,3,3,3-pentafluoro-1-propene] + CCC
Details	specific volume [m3/kg]
303.15 K, 459.8 kPa, x2 = 0.855	0.09
303.15 K, 722.5 kPa, x2 = 0.593	0.038
308.15 K, 412.6 kPa, x2 = 0.516	0.067
308.15 K, 468.5 kPa, x2 = 0.855	0.09
308.15 K, 491.5 kPa, x2 = 0.225	0.042
308.15 K, 738.6 kPa, x2 = 0.593	0.038
308.15 K, 946.2 kPa, x2 = 0.69	0.032
313.15 K, 420.3 kPa, x2 = 0.516	0.067
313.15 K, 477.3 kPa, x2 = 0.855	0.09
313.15 K, 501.4 kPa, x2 = 0.225	0.042
313.15 K, 754.6 kPa, x2 = 0.593	0.038
313.15 K, 968.3 kPa, x2 = 0.69	0.032
318.15 K, 428 kPa, x2 = 0.516	0.067
318.15 K, 486 kPa, x2 = 0.855	0.09
318.15 K, 511.5 kPa, x2 = 0.225	0.042
318.15 K, 770.3 kPa, x2 = 0.593	0.038
318.15 K, 990.1 kPa, x2 = 0.69	0.032
323.15 K, 435.7 kPa, x2 = 0.516	0.067
323.15 K, 494.7 kPa, x2 = 0.855	0.09
323.15 K, 521.2 kPa, x2 = 0.225	0.042
323.15 K, 786.1 kPa, x2 = 0.593	0.038
323.15 K, 1011.5 kPa, x2 = 0.69	0.032
328.15 K, 443.4 kPa, x2 = 0.516	0.067
328.15 K, 503.4 kPa, x2 = 0.855	0.09
328.15 K, 531.1 kPa, x2 = 0.225	0.042
328.15 K, 801.7 kPa, x2 = 0.593	0.038
328.15 K, 1033 kPa, x2 = 0.69	0.032
333.15 K, 451 kPa, x2 = 0.516	0.067
333.15 K, 512.1 kPa, x2 = 0.855	0.09
333.15 K, 540.8 kPa, x2 = 0.225	0.042
333.15 K, 817.3 kPa, x2 = 0.593	0.038
333.15 K, 1054.4 kPa, x2 = 0.69	0.032
338.15 K, 458.7 kPa, x2 = 0.516	0.067
338.15 K, 520.9 kPa, x2 = 0.855	0.09
338.15 K, 550.6 kPa, x2 = 0.225	0.042
338.15 K, 832.7 kPa, x2 = 0.593	0.038
338.15 K, 1075.7 kPa, x2 = 0.69	0.032
343.15 K, 466.6 kPa, x2 = 0.516	0.067
343.15 K, 529.5 kPa, x2 = 0.855	0.09
343.15 K, 560.3 kPa, x2 = 0.225	0.042
343.15 K, 848.1 kPa, x2 = 0.593	0.038
343.15 K, 1096.9 kPa, x2 = 0.69	0.032
348.15 K, 474.1 kPa, x2 = 0.516	0.067
348.15 K, 538.1 kPa, x2 = 0.855	0.09
348.15 K, 570 kPa, x2 = 0.225	0.042
348.15 K, 863.4 kPa, x2 = 0.593	0.038
348.15 K, 1118 kPa, x2 = 0.69	0.032
353.15 K, 481.7 kPa, x2 = 0.516	0.067
353.15 K, 546.7 kPa, x2 = 0.855	0.09
353.15 K, 580.1 kPa, x2 = 0.225	0.042
353.15 K, 878.7 kPa, x2 = 0.593	0.038
353.15 K, 1139.2 kPa, x2 = 0.69	0.032
358.15 K, 489.3 kPa, x2 = 0.516	0.067
358.15 K, 555.3 kPa, x2 = 0.855	0.09
358.15 K, 589.7 kPa, x2 = 0.225	0.042
358.15 K, 893.9 kPa, x2 = 0.593	0.038
358.15 K, 1160 kPa, x2 = 0.69	0.032
363.15 K, 496.8 kPa, x2 = 0.516	0.067
363.15 K, 563.9 kPa, x2 = 0.855	0.09
363.15 K, 909 kPa, x2 = 0.593	0.038
363.15 K, 1180.9 kPa, x2 = 0.69	0.032
363.16 K, 599.3 kPa, x2 = 0.225	0.042
